Experimental data taken from ChEMBL document CHEMBL5316263, “Structure-Based Discovery of Selective Histone Deacetylase 8 Degraders with Potent Anticancer Activity” (J Med Chem, 2023).
Calls of active or inactive are those of the source. The rule behind the calls is not given here.

Experiments:
A549 [1] = assay: Induction of apoptosis in human A549 cells assessed as late apoptotic cells at 1.25 uM incubated for 72 hrs by annexin V-FITC staining based flow cytometry (reference value: 0.048%); assay type: functional
A549 [2] = assay: Antiproliferative activity against human A549 cells assessed as inhibition of cell growth measured after 72 hrs by CCK-8 method; assay type: functional, cell-based
A549 [3] = assay: Synergistic antiproliferative activity against human A549 cells assessed as combination index measured after 72 hrs under irradiation by CCK-8 method; assay type: functional
A549 [4] = assay: Inhibition of colony formation in human A549 cells assessed as reduction in cell proliferation at 2.5 to 10 uM measured after 7 to 10 days with media replenishment along with compound for every 3 days by crystal violet staining based analysis; assay type: functional; conditions: dose 2.5-10 µM, time 7-10 day
HCT-116 [5] = assay: Inhibition of colony formation in human HCT-116 cells assessed as reduction in cell proliferation at 2.5 to 10 uM measured after 7 to 10 days with media replenishment along with compound for every 3 days by crystal violet staining based analysis; assay type: functional; conditions: dose 2.5-10 µM, time 7-10 day
A549 [6] = assay: Effect on TIPARP gene in human A549 cells at 10 uM measured after 20 hrs by RNA sequencing analysis; assay type: functional, cell-based
A549 [7] = assay: Effect on HDAC8 mRNA level in human A549 cells at 10 uM measured after 20 hrs by RNA sequencing analysis; assay type: functional, cell-based
[8] = target: T1, Histone deacetylase 8 (Homo sapiens) (UniProt Q9BY41); assay: Induction of degradation in HDAC8 in human A549 cells incubated for 20 hrs by proteomic analysis; assay type: cell-based
T1 sequence (whole entry): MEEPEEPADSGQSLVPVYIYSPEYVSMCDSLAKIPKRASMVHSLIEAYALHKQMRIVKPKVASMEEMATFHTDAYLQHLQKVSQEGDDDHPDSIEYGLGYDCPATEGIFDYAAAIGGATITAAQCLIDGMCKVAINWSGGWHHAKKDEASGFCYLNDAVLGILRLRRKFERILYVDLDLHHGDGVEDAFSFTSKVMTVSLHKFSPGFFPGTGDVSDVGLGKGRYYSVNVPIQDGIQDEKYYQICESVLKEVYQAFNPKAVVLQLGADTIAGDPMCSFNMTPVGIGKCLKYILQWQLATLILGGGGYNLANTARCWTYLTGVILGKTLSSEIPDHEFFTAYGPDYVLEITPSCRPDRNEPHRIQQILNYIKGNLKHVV

A549 [9] = assay: Downregulation of IL6ST in human A549 cells measured after 20 hrs by proteomic analysis; assay type: functional, cell-based
A549 [10] = assay: Downregulation of COMMD1 in human A549 cells measured after 20 hrs by proteomic analysis; assay type: functional, cell-based
A549 [11] = assay: Induction of apoptosis in human A549 cells incubated for 72 hrs by annexin V-FITC staining based flow cytometry; assay type: functional, cell-based; conditions: dose 1.25-20 µM
A549 [12] = assay: Induction of apoptosis in human A549 cells assessed as viable cells at 1.25 uM incubated for 72 hrs by annexin V-FITC staining based flow cytometry (reference value: 99.9%); assay type: functional; conditions: read-out: Activity
A549 [13] = assay: Induction of apoptosis in human A549 cells assessed as viable cells at 20 uM incubated for 72 hrs by annexin V-FITC staining based flow cytometry (reference value: 99.9%); assay type: functional; conditions: read-out: Activity
A549 [14] = assay: Induction of apoptosis in human A549 cells assessed as early apoptotic cells at 20 uM incubated for 72 hrs by annexin V-FITC staining based flow cytometry (reference value: 0.099%); assay type: functional
A549 [15] = assay: Induction of apoptosis in human A549 cells assessed as late apoptotic cells at 5 uM incubated for 72 hrs by annexin V-FITC staining based flow cytometry (reference value: 0.048%); assay type: functional
A549 [16] = assay: Induction of apoptosis in human A549 cells assessed as late apoptotic cells at 20 uM incubated for 72 hrs by annexin V-FITC staining based flow cytometry (reference value: 0.048%); assay type: functional
A549 [17] = assay: Induction of apoptosis in human A549 cells assessed as viable cells at 5 uM by annexin V-FITC staining based flow cytometry (reference value: 100%); assay type: functional; conditions: read-out: Activity
A549 [18] = assay: Induction of apoptosis in human A549 cells assessed as late apoptotic cells at 5 uM by annexin V-FITC staining based flow cytometry (reference value: 0.00%); assay type: functional
A549 [19] = assay: Induction of apoptosis in human A549 cells assessed as necrotic cells at 5 uM incubated for 48 hrs by annexin V FITC and propidium iodide based flow cytometry relative to control; assay type: functional
[20] = target: T2, Protein cereblon/Histone deacetylase 8 (Homo sapiens) (UniProt Q9BY41+Q96SW2); assay: Protac activity at CRBN/HDAC8 in human A549 cells assessed as reduction in HDAC8 protein level by Western blot analysis; assay type: cell-based; conditions: dose 0.2-10 µM
[21] = target: Protein cereblon/Histone deacetylase 2 (Homo sapiens) (UniProt Q92769+Q96SW2); assay: Protac activity at CRBN/HDAC2 in human A549 cells assessed as reduction in HDAC2 protein level at 0.1 to 10 uM by Western blot analysis; assay type: cell-based; conditions: dose 0.1-10 µM
[22] = target: Protein cereblon/Protein deacetylase HDAC6 (Homo sapiens) (UniProt Q9UBN7+Q96SW2); assay: Protac activity at CRBN/HDAC6 in human A549 cells assessed as reduction in HDAC6 protein level at 0.1 to 10 uM by Western blot analysis; assay type: cell-based; conditions: dose 0.1-10 µM
[23] = target: Protein cereblon/Histone deacetylase 9 (Homo sapiens) (UniProt Q9UKV0+Q96SW2); assay: Protac activity at CRBN/HDAC9 in human A549 cells assessed as reduction in HDAC9 protein level at 0.1 to 10 uM by Western blot analysis; assay type: cell-based; conditions: dose 0.1-10 µM
[24] = target: T2, Protein cereblon/Histone deacetylase 8 (Homo sapiens); assay: Protac activity at CRBN/HDAC8 in human HeLa cells assessed as reduction in HDAC8 protein level at 0.1 to 10 uM by Western blot analysis; assay type: cell-based; conditions: dose 0.1-10 µM
HCT-116 [25] = assay: Inhibition of HDAC8 foci formation in human HCT-116 cells measured after 20 hrs by DAPI staining based immunofluorescence assay; assay type: functional, cell-based; conditions: dose 0.5-8 µM
[26] = target: T2, Protein cereblon/Histone deacetylase 8 (Homo sapiens); assay: Protac activity at CRBN/HDAC8 in human A549 cells assessed as reduction in HDAC8 protein levels at 10 uM measured after 16 hrs by Western blot analysis; assay type: cell-based
[27] = target: T2, Protein cereblon/Histone deacetylase 8 (Homo sapiens); assay: Protac activity at CRBN/HDAC8 in human Jurkat cells at 0.1 to 10 uM measured after 20 hrs by Western blot analysis; assay type: cell-based; conditions: dose 0.1-10 µM
A549 [28] = assay: Inhibition of DNA damage repair in human A549 cells assessed as reduction in number of gamma-H2AX foci at 5 uM incubated for 24 hrs followed by irradiation for 4 hrs by immunofluorescence staining based analysis; assay type: functional, cell-based
A549 [29] = assay: Antitumor activity against human A549 cells xenografted in NOD/SCID mouse at 5 mg/kg, ip administered every 5 days measured at day 30 followed by irradiation; assay type: functional, organism-based; conditions: time 30.0 day
[30] = target: T2, Protein cereblon/Histone deacetylase 8 (Homo sapiens); assay: In vivo protac activity at CRBN/HDAC8 in human A549 cells xenografted in NOD/SCID mouse assessed as degradation of HDAC8 at 5 mg/kg, ip administered every 5 days measured at day 30 by Western blot analysis; assay type: functional, organism-based; conditions: time 30.0 day
A549 [31] = assay: Antitumor activity against human A549 cells xenografted in NOD/SCID mouse assessed as decrease in HDAC8 expression at 5 mg/kg, ip administered every 5 days measured at day 30 by […] analysis; assay type: functional, organism-based; conditions: time 30.0 day

T2 sequence (Q96SW2 whole entry, looked up, one chain of several): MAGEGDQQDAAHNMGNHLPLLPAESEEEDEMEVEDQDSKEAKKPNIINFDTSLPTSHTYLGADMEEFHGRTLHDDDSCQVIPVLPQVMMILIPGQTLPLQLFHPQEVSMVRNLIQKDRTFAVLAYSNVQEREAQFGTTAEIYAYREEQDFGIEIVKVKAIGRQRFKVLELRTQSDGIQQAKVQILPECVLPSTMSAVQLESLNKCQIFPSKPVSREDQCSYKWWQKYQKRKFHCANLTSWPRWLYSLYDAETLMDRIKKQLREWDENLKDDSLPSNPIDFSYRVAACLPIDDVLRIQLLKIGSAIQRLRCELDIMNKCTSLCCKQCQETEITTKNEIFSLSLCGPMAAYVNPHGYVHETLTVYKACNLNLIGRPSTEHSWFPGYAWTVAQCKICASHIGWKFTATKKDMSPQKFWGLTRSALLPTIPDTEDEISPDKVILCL
Chain of Protein cereblon/Histone deacetylase 2 (Homo sapiens) (Q92769 whole entry, looked up): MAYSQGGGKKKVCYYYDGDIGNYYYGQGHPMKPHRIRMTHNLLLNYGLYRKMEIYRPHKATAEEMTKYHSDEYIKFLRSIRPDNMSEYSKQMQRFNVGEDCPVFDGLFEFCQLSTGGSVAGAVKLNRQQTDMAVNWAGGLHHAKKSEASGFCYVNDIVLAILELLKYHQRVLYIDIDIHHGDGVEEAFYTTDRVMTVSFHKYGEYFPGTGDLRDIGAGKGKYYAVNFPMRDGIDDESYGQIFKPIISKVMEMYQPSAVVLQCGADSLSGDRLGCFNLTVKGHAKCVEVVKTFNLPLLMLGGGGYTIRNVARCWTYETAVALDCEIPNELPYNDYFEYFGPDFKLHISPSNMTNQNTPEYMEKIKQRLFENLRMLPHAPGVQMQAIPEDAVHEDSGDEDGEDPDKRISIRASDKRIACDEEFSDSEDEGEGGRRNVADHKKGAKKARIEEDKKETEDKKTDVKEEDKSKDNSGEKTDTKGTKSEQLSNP
Chain of Protein cereblon/Histone deacetylase 2 (Homo sapiens) (Q96SW2 whole entry, looked up): as the sequence (Q96SW2 whole entry, looked up, one chain of several) above
Chain of Protein cereblon/Protein deacetylase HDAC6 (Homo sapiens) (Q96SW2 whole entry, looked up): as the sequence (Q96SW2 whole entry, looked up, one chain of several) above
Chain of Protein cereblon/Protein deacetylase HDAC6 (Homo sapiens) (Q9UBN7 whole entry, looked up): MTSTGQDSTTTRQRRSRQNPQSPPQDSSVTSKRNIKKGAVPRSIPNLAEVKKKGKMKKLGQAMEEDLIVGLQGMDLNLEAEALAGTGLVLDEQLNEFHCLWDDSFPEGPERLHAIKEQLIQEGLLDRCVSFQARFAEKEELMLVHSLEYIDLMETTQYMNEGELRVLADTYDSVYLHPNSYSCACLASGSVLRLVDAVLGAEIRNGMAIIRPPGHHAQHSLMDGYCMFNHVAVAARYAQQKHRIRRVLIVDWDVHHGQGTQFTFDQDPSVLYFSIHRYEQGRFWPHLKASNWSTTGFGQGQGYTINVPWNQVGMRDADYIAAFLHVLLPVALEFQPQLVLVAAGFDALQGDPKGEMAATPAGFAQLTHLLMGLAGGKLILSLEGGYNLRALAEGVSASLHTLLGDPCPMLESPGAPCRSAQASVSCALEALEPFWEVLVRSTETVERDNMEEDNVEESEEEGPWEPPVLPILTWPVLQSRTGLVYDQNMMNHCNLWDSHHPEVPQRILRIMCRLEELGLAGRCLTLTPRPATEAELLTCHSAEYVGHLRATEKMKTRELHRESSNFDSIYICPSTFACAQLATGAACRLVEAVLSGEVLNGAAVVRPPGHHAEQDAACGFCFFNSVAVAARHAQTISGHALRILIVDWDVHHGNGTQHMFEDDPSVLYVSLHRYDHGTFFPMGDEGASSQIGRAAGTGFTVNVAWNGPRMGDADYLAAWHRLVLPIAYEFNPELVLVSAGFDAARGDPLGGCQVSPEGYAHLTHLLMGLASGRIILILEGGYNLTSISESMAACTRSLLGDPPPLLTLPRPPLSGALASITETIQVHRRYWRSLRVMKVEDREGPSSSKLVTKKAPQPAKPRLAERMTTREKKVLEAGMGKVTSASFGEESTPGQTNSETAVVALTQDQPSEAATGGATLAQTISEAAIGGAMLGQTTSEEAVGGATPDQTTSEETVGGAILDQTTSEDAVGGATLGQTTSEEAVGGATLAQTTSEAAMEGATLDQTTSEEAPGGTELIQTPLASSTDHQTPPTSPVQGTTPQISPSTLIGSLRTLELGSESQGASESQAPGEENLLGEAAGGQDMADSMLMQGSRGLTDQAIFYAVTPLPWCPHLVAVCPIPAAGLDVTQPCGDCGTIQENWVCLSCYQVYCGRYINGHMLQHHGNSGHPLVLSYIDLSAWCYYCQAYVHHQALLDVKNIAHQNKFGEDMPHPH
Chain of Protein cereblon/Histone deacetylase 9 (Homo sapiens) (Q96SW2 whole entry, looked up): as the sequence (Q96SW2 whole entry, looked up, one chain of several) above
Chain of Protein cereblon/Histone deacetylase 9 (Homo sapiens) (Q9UKV0 whole entry, looked up): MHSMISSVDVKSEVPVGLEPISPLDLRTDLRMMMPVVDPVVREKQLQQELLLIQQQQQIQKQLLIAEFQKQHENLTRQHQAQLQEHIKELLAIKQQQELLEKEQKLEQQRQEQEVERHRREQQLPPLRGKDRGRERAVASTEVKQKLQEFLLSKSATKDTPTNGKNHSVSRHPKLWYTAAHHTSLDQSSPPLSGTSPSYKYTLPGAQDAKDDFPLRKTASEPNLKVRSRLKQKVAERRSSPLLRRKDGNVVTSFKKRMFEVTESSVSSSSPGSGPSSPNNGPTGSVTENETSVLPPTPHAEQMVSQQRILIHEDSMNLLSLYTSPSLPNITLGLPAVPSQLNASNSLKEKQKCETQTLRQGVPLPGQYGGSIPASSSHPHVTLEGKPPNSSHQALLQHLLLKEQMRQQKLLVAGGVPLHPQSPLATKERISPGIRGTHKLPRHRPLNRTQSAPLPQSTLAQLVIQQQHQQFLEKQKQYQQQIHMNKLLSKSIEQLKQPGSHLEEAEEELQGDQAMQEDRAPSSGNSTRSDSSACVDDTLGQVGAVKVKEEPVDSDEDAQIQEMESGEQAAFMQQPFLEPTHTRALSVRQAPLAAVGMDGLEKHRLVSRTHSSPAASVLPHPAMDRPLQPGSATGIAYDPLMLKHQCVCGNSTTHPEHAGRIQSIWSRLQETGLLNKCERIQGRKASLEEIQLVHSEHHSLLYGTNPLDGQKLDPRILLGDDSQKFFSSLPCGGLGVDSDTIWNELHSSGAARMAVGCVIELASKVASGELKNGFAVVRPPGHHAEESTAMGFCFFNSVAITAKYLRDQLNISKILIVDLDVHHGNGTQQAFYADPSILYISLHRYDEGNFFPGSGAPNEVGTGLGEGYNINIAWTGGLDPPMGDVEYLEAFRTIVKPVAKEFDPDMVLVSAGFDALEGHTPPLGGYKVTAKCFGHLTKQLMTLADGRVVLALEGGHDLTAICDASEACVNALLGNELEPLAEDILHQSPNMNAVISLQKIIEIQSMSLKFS

IC50 (A549 [2]; A549, 72 h): 9.55 µM
Activity [8]: Active
Activity [20]: Dose-Dependent Effect
Activity [21]: inactive
Activity [22]: inactive
Activity [23]: inactive
Activity [24]: Active
Activity [26]: Active
Activity [27]: inactive
Activity [30]: Active
SMILES: O=C1CCC(N2C(=O)c3cccc(NCc4cn(CCOCCOc5ccc(Cn6ccc7ccc(C(=O)NO)cc76)cc5)nn4)c3C2=O)C(=O)N1 (configuration not stated)
Activity (A549 [1]): 7.4%
Activity (A549 [2]; dose <= 1.5 µM): Dose-Dependent Effect
CI (A549 [3]): 0.65
inhibition (A549 [4]): Active
inhibition (HCT-116 [5]): Active
Activity (A549 [6]): Active
Activity (A549 [7]): inactive
Activity (A549 [9]): Active
Activity (A549 [10]): Active
Activity (A549 [11]): Dose-Dependent Effect
viability at 1.25 µM (A549 [12]): 68.2%
viability at 20 µM (A549 [13]): 6.84%
Activity (A549 [14]): 70.4%
Activity (A549 [15]): 21.8%
Activity (A549 [16]): 22.7%
viability at 5 µM (A549 [17]): 77%
Activity (A549 [18]): 6.19%
Activity (A549 [19]): 30%
inhibition (HCT-116 [25]): Dose-Dependent Effect
inhibition (A549 [28]): Active
Activity (A549 [29]): Active
Activity (A549 [31]): Active
